Common to all, as to format: functional
Conditions in all cases: read-out: GI

One assay relates to BT-549. Nature of the assay: Growth inhibition of human BT-549 cells at 10 uM incubated for 48 hrs by sulforhodamine B assay relative to control. On the technique in general: Sulforhodamine B stains cellular protein and so reports cell mass.
The subject of another assay is CAKI-1. Nature of the assay: Growth inhibition of human CAKI-1 cells at 10 uM incubated for 48 hrs by sulforhodamine B assay relative to control.
A further assay has as its system SK-MEL-28. Briefly: Growth inhibition of human SK-MEL-28 cells at 10 uM incubated for 48 hrs by sulforhodamine B assay relative to control.
A further assay deals with MOLT-4. Nature of the assay: Growth inhibition of human MOLT-4 cells at 10 uM incubated for 48 hrs by sulforhodamine B assay relative to control.
The next assay relates to Malme-3M. Nature of the assay: Growth inhibition of human Malme-3M cells at 10 uM incubated for 48 hrs by sulforhodamine B assay relative to control.
The test system of a further assay is HOP-62. Briefly: Growth inhibition of human HOP-62 cells at 10 uM incubated for 48 hrs by sulforhodamine B assay relative to control.
The subject of another assay is A498. Nature of the assay: Growth inhibition of human A498 cells at 10 uM incubated for 48 hrs by sulforhodamine B assay relative to control.
For another assay, the system named is OVCAR-3. Briefly: Growth inhibition of human OVCAR-3 cells at 10 uM incubated for 48 hrs by sulforhodamine B assay relative to control.
The subject of the next assay is NCI/ADR-RES. Nature of the assay: Growth inhibition of human NCI/ADR-RES cells at 10 uM incubated for 48 hrs by sulforhodamine B assay relative to control.
Another assay relates to K562. Nature of the assay: Growth inhibition of human K562 cells at 10 uM incubated for 48 hrs by sulforhodamine B assay relative to control.
Another assay concerns MCF7. Nature of the assay: Growth inhibition of human MCF7 cells at 10 uM incubated for 48 hrs by sulforhodamine B assay relative to control.
The next assay deals with SNB-75. Briefly: Growth inhibition of human SNB-75 cells at 10 uM incubated for 48 hrs by sulforhodamine B assay relative to control.
For a further assay, the system named is EKVX. Briefly: Growth inhibition of human EKVX cells at 10 uM incubated for 48 hrs by sulforhodamine B assay relative to control.
A further assay concerns 786-0. Nature of the assay: Growth inhibition of human 786-0 cells at 10 uM incubated for 48 hrs by sulforhodamine B assay relative to control.
In another assay the test system is IGROV-1. Briefly: Growth inhibition of human IGROV-1 cells at 10 uM incubated for 48 hrs by sulforhodamine B assay relative to control.

Among the data in ChEMBL document CHEMBL4765227, “Hit to lead optimization of a series of N-[4-(1,3-benzothiazol-2-yl)phenyl]acetamides as monoacylglycerol lipase inhibitors with potential anticancer activity” (Eur J Med Chem, 2016) are inhibition of growth values, retold here.

For `O=C(CNc1nnc(-c2ccc(Cl)cc2)o1)Nc1ccc(-c2nc3ccccc3s2)cc1`, the inhibition of growth at 10 µM in the assay on BT-549 is 13%; in the assay with CAKI-1 it was -0.31%; in the assay with SK-MEL-28, -16.7%; in the assay on MOLT-4, 66.8%; in the assay on Malme-3M it was 11.3%; with HOP-62 it was -6.78%. In addition, the inhibition of growth at 10 µM in the assay with A498 was 18%; with OVCAR-3, 2.27%; in the assay with NCI/ADR-RES, 1.07%; with K562 it was 14.4%; in the assay on MCF7, 65.5%; in the assay on SNB-75, 14.2%. Further, the inhibition of growth at 10 µM with EKVX was -4.4%; with 786-0, -1.02%; in the assay on IGROV-1, 5.85%.
`Cc1cc(C)n(CC(=O)Nc2ccc(-c3nc4ccccc4s3)cc2)n1`: the inhibition of growth at 10 µM in the assay with BT-549 is -15.3%; in the assay with CAKI-1, -1.54%; in the assay on SK-MEL-28, -8.88%; with MOLT-4, 16%; in the assay with Malme-3M it was -7.85%; with HOP-62 it was -5.06%. For the same compound, the inhibition of growth at 10 µM in the assay on A498 is 5.37%; with OVCAR-3, -1.21%; in the assay with NCI/ADR-RES, -2.56%; with K562 it was -0.21%; in the assay on MCF7, 73.4%; in the assay with SNB-75, -0.57%. Moreover, the figures for the inhibition of growth at 10 µM with EKVX, with 786-0 and in the assay with IGROV-1 were -7.86%, -5.8% and 2.57%, respectively.
For `O=C(Cn1cncn1)Nc1ccc(-c2nc3ccccc3s2)cc1`, the inhibition of growth at 10 µM in the assay with BT-549 was 8.47%; with CAKI-1 it was 6.2%; in the assay on SK-MEL-28 it was -11%; in the assay on MOLT-4, 8.15%; in the assay with Malme-3M, -0.27%; in the assay on HOP-62 it was -2.28%. Also, the inhibition of growth at 10 µM with A498 was 11.6%; in the assay on OVCAR-3 it was 8.95%; in the assay on NCI/ADR-RES it was -1.6%; in the assay on K562 it was 14.2%; in the assay on MCF7, 63.9%; with SNB-75, 7.87%. The inhibition of growth at 10 µM in the assay with EKVX came out at 9.8%; with 786-0, 4.38%; in the assay on IGROV-1, 7.64%.
Regarding `O=C(CNc1nc(-c2ccc(Cl)cc2)cs1)Nc1ccc(-c2nc3ccccc3s2)cc1`, the inhibition of growth at 10 µM with BT-549 is -6.9%; in the assay with CAKI-1, 5.79%; in the assay on SK-MEL-28, -10.9%; with MOLT-4, 7.26%; in the assay with Malme-3M it was -1.86%; in the assay on HOP-62, -6.21%. Besides, the inhibition of growth at 10 µM in the assay with A498 was -2.14%; in the assay on OVCAR-3, 5.97%; in the assay on NCI/ADR-RES, 5.81%; in the assay on K562 it was 3.58%; with MCF7, 70.2%; in the assay on SNB-75, 22.2%. In addition, the figures for the inhibition of growth at 10 µM in the assay on EKVX, in the assay with 786-0 and with IGROV-1 were -2.38%, -9.09% and 40.9%, respectively.
As to `CN1CCN(CC(=O)Nc2ccc(-c3nc4ccccc4s3)cc2)CC1`, the inhibition of growth at 10 µM in the assay on BT-549 stood at 19.4%; in the assay on CAKI-1, 26.5%; with SK-MEL-28, 66.2%; in the assay on MOLT-4 it was 22%; in the assay on Malme-3M it was 1.71%; in the assay with HOP-62, 12.7%. The inhibition of growth at 10 µM in the assay with A498 was 40.5%; with OVCAR-3 it was 0.78%; in the assay on NCI/ADR-RES, 14.4%; in the assay with K562, 58.2%; in the assay on MCF7, 63.2%; in the assay on SNB-75, 26.9%. Also, the inhibition of growth at 10 µM with EKVX came out at 16.3%; with 786-0, 21.3%; with IGROV-1, 19.4%.
